Measurements: ChEMBL document CHEMBL1201862, “PubChem BioAssay data set” (2004)
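The compound was tested at five concentrations on cells cultured in 96-well plates, with a 48-hour exposure period. The concentration for 50% growth inhibition is given as GI50.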 The source made the active and inactive calls. Cut-off read from the data, not from the text of the source: active = GI50 up to about 1.1 µM and inactive = higher.

Key:
Assay in all cases: DTP human tumour cell line panel, 48 h
[1] = tested on: Malme-3M
[2] = tested on: HOP-92
[3] = tested on: COLO 205
[4] = tested on: KM12
[5] = tested on: SN12C
[6] = tested on: OVCAR-3
[7] = tested on: SNB-19
[8] = tested on: HT-29
[9] = tested on: TK-10
[10] = tested on: HL-60
[11] = tested on: SK-OV-3
[12] = tested on: U-251
[13] = tested on: MDA-N
[14] = tested on: SW-620
[15] = tested on: EKVX
[16] = tested on: CAKI-1
[17] = tested on: A549
[18] = tested on: ACHN
[19] = tested on: RPMI-8226
[20] = tested on: SF-295
[21] = tested on: SF-268
[22] = tested on: Hs-578T
[23] = tested on: LOX IMVI
[24] = tested on: SK-MEL-28
[25] = tested on: SF-539
[26] = tested on: OVCAR-4
[27] = tested on: K562
[28] = tested on: RXF 393
[29] = tested on: SK-MEL-2
[30] = tested on: OVCAR-8
[31] = tested on: CCRF-CEM
[32] = tested on: NCI/ADR-RES
[33] = tested on: HCT-15
[34] = tested on: DU-145
[35] = tested on: HCT-116
[36] = tested on: NCI-H460
[37] = tested on: UO-31
[38] = tested on: HOP-62
[39] = tested on: T47D
[40] = tested on: SNB-75
[41] = tested on: HCC 2998
[42] = tested on: 786-0
[43] = tested on: M14
[44] = tested on: NCI-H23
[45] = tested on: MOLT-4
[46] = tested on: IGROV-1
[47] = tested on: MCF7
[48] = tested on: MDA-MB-435
[49] = tested on: UACC-257
[50] = tested on: PC-3
[51] = tested on: MDA-MB-231
[52] = tested on: SK-MEL-5
[53] = tested on: UACC-62
[54] = tested on: SR

Q: Which GI50 [1] does the source give for COc1ccccc1NC(=S)N/N=C(/C)c1ccccn1 here?
A: 0.0789 µM (active)

Q: What about the GI50 [2] of the same compound?
A: 6.93 µM (inactive)

Q: And the GI50 [3]?
A: < 11.9 nM (active)

Q: And the GI50 [4]?
A: 117 nM (active)

Q: What about the GI50 [5] of the same compound?
A: 0.178 µM (active)

Q: And the GI50 [6]?
A: < 10 nM (active)

Q: What about the GI50 [7] of the same compound?
A: 6.19 µM (inactive)

Q: What about the GI50 [8] of the same compound?
A: < 10 nM (active)

Q: And the GI50 [9]?
A: 0.0644 µM (active)

Q: What about the GI50 [10] of the same compound?
A: < 10 nM (active)

Q: And the GI50 [11]?
A: < 21.3 nM (active)

Q: And the GI50 [12]?
A: < 17.2 nM (active)

Q: What about the GI50 [13] of the same compound?
A: 637 nM (active)

Q: And the GI50 [14]?
A: < 10 nM (active)

Q: And the GI50 [15]?
A: 0.268 µM (active)

Q: And the GI50 [16]?
A: 13.2 nM (active)

Q: And the GI50 [17]?
A: < 27.4 nM (active)

Q: And the GI50 [18]?
A: < 10.6 nM (active)

Q: And the GI50 [19]?
A: < 10 nM (active)

Q: And the GI50 [20]?
A: 0.0771 µM (active)

Q: What about the GI50 [21] of the same compound?
A: < 12.4 nM (active)

Q: And the GI50 [22]?
A: > 37.5 µM (inactive)

Q: And the GI50 [23]?
A: < 10 nM (active)

Q: What about the GI50 [24] of the same compound?
A: 1.71 µM (inactive)

Q: What about the GI50 [25] of the same compound?
A: 371 nM (active)

Q: What about the GI50 [26] of the same compound?
A: 184 nM (active)

Q: What about the GI50 [27] of the same compound?
A: < 10 nM (active)

Q: And the GI50 [28]?
A: 658 nM (active)

Q: And the GI50 [29]?
A: 7.5 µM (inactive)

Q: What about the GI50 [30] of the same compound?
A: 11.2 nM (active)

Q: What about the GI50 [31] of the same compound?
A: < 10 nM (active)

Q: What about the GI50 [32] of the same compound?
A: < 10 nM (active)

Q: What about the GI50 [33] of the same compound?
A: < 0.0318 µM

Q: And the GI50 [34]?
A: 1.28 µM (inactive)

Q: What about the GI50 [35] of the same compound?
A: < 10 nM (active)

Q: And the GI50 [36]?
A: < 13.2 nM (active)

Q: And the GI50 [37]?
A: 1.37 µM (inactive)

Q: And the GI50 [38]?
A: < 12.7 nM (active)

Q: And the GI50 [39]?
A: < 10 nM (active)

Q: And the GI50 [40]?
A: 1.45 µM (inactive)

Q: What about the GI50 [41] of the same compound?
A: 7 µM (inactive)

Q: What about the GI50 [42] of the same compound?
A: < 12.3 nM (active)

Q: And the GI50 [43]?
A: < 10 nM (active)

Q: What about the GI50 [44] of the same compound?
A: < 18.5 nM (active)

Q: What about the GI50 [45] of the same compound?
A: < 10 nM (active)

Q: And the GI50 [46]?
A: < 0.01 µM (active)

Q: And the GI50 [47]?
A: < 10 nM (active)

Q: And the GI50 [48]?
A: 968 nM (active)

Q: And the GI50 [49]?
A: < 0.01 µM (active)

Q: And the GI50 [50]?
A: < 10 nM (active)

Q: What about the GI50 [51] of the same compound?
A: < 0.01 µM (active)

Q: What about the GI50 [52] of the same compound?
A: < 0.041 µM (active)

Q: And the GI50 [53]?
A: 0.238 µM (active)

Q: Which results are given for COc1ccc(C(=O)/C=C/c2ccc(OCC(=N)N)cc2)cc1OC?
A: GI50 [1]: > 10 µM (inactive); GI50 [3]: 3340 nM (inactive); GI50 [4]: 2640 nM (inactive); GI50 [54]: 1.64 µM (inactive); GI50 [5]: > 10 µM (inactive); GI50 [8]: 3100 nM (inactive); GI50 [9]: > 10 µM (inactive); GI50 [10]: 1950 nM (inactive); GI50 [11]: 4010 nM (inactive); GI50 [13]: 3600 nM (inactive); GI50 [14]: 3840 nM (inactive); GI50 [15]: 7.36 µM (inactive); GI50 [16]: 5050 nM (inactive); GI50 [17]: 5970 nM (inactive); GI50 [19]: 2340 nM (inactive); GI50 [20]: > 10 µM (inactive); GI50 [21]: 3610 nM (inactive); GI50 [23]: 2520 nM (inactive); GI50 [24]: 8.73 µM (inactive); GI50 [27]: 2370 nM (inactive); GI50 [28]: 4630 nM (inactive); GI50 [30]: 3620 nM (inactive); GI50 [31]: 2610 nM (inactive); GI50 [33]: > 10 µM; GI50 [34]: > 10 µM (inactive); GI50 [38]: 5750 nM (inactive); GI50 [39]: 3860 nM (inactive); GI50 [40]: 4.53 µM (inactive); GI50 [41]: 6.4 µM (inactive); GI50 [42]: 5040 nM (inactive); GI50 [43]: 5870 nM (inactive); GI50 [44]: 3330 nM (inactive); GI50 [46]: > 10 µM (inactive); GI50 [47]: 3240 nM (inactive); GI50 [49]: 6.79 µM (inactive); GI50 [50]: 3840 nM (inactive); GI50 [51]: > 10 µM (inactive); GI50 [52]: 7.93 µM (inactive); GI50 [53]: > 10 µM (inactive)
